Measured values reported in US11846639B2, “Ligand discovery for T cell receptors” (priority 2014, dated 2023).

Tested on: AGA1 T cell receptor
Assay: Selection of yeast-displayed HLA-B5703 peptide library with AGA1 TCR, deep sequencing read counts
Assay type: binding
Details: for number of times the peptide was represented, Rd1: after round 1 of selection with AGA1 TCR; for number of times the peptide was represented, Rd2: after round 2 of selection with AGA1 TCR; for number of times the peptide was represented, Rd3: after round 3 of selection with AGA1 TCR; for number of times the peptide was represented, Rd4: after round 4 of selection with AGA1 TCR; for number of times the peptide was represented, Naïve: naïve library before selection
Protocol: Selection of pMHC libraries To maximize sensitivity of selections, all described selection steps were conducted at 4° using cold buffers, and refrigerated centrifuges. All spins were 5,000×g for 1 minute. Before each round of selection, a small sample of yeast (˜1×10^6 cells) were stained with an anti-epitope tag antibody. For the first round of selection, ˜2×10^9 yeast were washed once with PBS+0.5% BSA and 1 mM EDTA (PBE buffer) and then cleared with unloaded Streptavidin Microbeads (250 uL beads in 5 mL PBE) (Miltenyi, 130-048-101) to eliminate any nonspecifically binding yeast clones by incubating 1 hr at 4° with gentle rotation. The yeast were then spun down, resuspended in 5 mL PBE without a wash, and passed through a Miltenyi LS column. […] TCR-binding yeast were then selected via an LS column, washed in SDCAA, and then re-cultured in SDCAA, pH 4.5 at 30° C. overnight. Yeast were re-induced upon reaching OD>2. For each round of selection, at least 10-fold more yeast was used than recovered from the previous round to ensure complete coverage of all selected yeast. Second and third rounds of selection were conducted in the same manner, but with reduced volumes (50 µL of beads in 500 LL PBE). Progress of selections was monitored by counting of cells selected to TCR-bound streptavidin beads as compared to streptavidin beads alone via an Accuri C6 flow cytometer. […] For the final round of selection (conducted when the yeast count enriched by TCR loaded beads was higher than background, usually after 3 rounds), the libraries were stained with 500 nM streptavidin-TCR tetramer as described above, washed 3× with PBE, then incubated with 50 uL anti-Alexa647 Microbeads (Miltenyi, 130-091-395) in 450 µL PBE for 20 minutes. The yeast were washed a final time and passed through a Miltenyi LS column. Enriched yeast were then plated on SDCAA plates for characterization of individual colonies. Individual yeast clones were then screened for tetramer staining as described above. Plasmids containing the selected pMHC were isolated from positive clones via yeast miniprep (Zymoprep II kit, Zymo Research) and sequenced (Sequetech).
Deep sequencing of selection libraries. Pooled plasmids from 5×10^7 yeast from each round of selection were isolated via yeast miniprep (Zymoprep II kit, Zymo Research) and used as PCR template to prepare Illumina samples. Amplicon libraries were designed as follows: (Illumina P5-Truseq read 1-(N8)-Barcode-pMHC-(N8)-Truseq read 2-IlluminaP7). N8 was added immediately after both sequencing primers to generate diversity for low complexity sequencing reads. The adapter and barcode sequences were appended via nested 25-round cycles of PCR of the purified plasmids using Phusion polymerase (NEB). Primers were proximal to the peptide on the pMHC, annealing to the Aga2p leader sequence (5′ end) and MHC β1 domain (3′ end) to ensure high quality sequence reads of the peptide with double coverage. Final PCR products were run on a high percentage agarose gel and purified via gel extraction. PCR products were then quantitated via nanodrop, normalized for each barcoded round of selection to be equally represented, doped with 5-50% PhiX DNA to ensure sufficient sequence diversity for high quality sequence reads, and run on an Illumina MiSeq with 2×150 nt Paired End reads. The initial deep sequencing run, for the 2B4-I-E^k selections, was conducted with 1×150 nt Single End reads. When the sequencing data was analyzed as described below, we saw no significant difference in data quality between single and paired-end reads (as judged by comparing the results for 226/5cc7 when analyzed as single reads vs. paired-end reads). Deep sequencing was conducted at the Stanford Stem Cell Institute Genome Center.
The library was expressed and screened as described above in Example 1, with the AGA1 T cell receptor.
The top 20 peptides after round 3 has the sequences shown below in Table 3. […]

Sequence	number of times the peptide was represented, Rd1	number of times the peptide was represented, Rd2	number of times the peptide was represented, Rd3	number of times the peptide was represented, Rd4	number of times the peptide was represented, Naïve
ASFRPELAEFW [HLA-B5703 library peptide selected with AGA1 TCR]	11	14699	24829	42208	1
ASFSPELRMAW [HLA-B5703 library peptide selected with AGA1 TCR]	10	9925	47218	31919	0
GSLAPEIRMYW [HLA-B5703 library peptide selected with AGA1 TCR]	11	3108	23178	10848	9
GTIRPEIREMW [HLA-B5703 library peptide selected with AGA1 TCR]	37	36754	226381	113394	5
KSCTPEVREYF [HLA-B5703 library peptide selected with AGA1 TCR]	17	15114	94896	49796	0
KSFVPELKPAF [HLA-B5703 library peptide selected with AGA1 TCR]	36	37327	157329	120443	2
KSLAPEVRDLF [HLA-B5703 library peptide selected with AGA1 TCR]	8	6502	34865	22054	0
KSLTPEVRGYW [HLA-B5703 library peptide selected with AGA1 TCR]	15	13273	30634	38231	1
LSLRPEIPLFF [HLA-B5703 library peptide selected with AGA1 TCR]	74	63749	183724	189891	5
NSFRPEVAMKY [HLA-B5703 library peptide selected with AGA1 TCR]	7	6013	31331	19786	6
NSLKPEIPDYF [HLA-B5703 library peptide selected with AGA1 TCR]	47	48656	268475	171826	11
NSVKPEIRPVW [HLA-B5703 library peptide selected with AGA1 TCR]	10	10086	33679	32818	6
RSFVPEIGMGF [HLA-B5703 library peptide selected with AGA1 TCR]	18	20370	22329	65722	8
RSFYPEIREYW [HLA-B5703 library peptide selected with AGA1 TCR]	19	14782	119258	48648	7
SALRPEIRLLW [HLA-B5703 library peptide selected with AGA1 TCR]	50	28840	21235	70740	1
SSFSPELRMRW [HLA-B5703 library peptide selected with AGA1 TCR]	10	14335	98338	48729	3
SSGVPEVRMMF [HLA-B5703 library peptide selected with AGA1 TCR]	38	40422	215079	125041	6
WTYRPEVRGVW [HLA-B5703 library peptide selected with AGA1 TCR]	21	30482	128915	91015	4
YSFKPELKEIF [HLA-B5703 library peptide selected with AGA1 TCR]	5	5648	28641	20312	0
